# Measurements taken from US20130158362A1 (INFACARE PHARMACEUTICAL CORPORATION, priority 2011, published 2013).
# System: total serum bilirubin (TSB)
# Assay: Phase 2b trial: total serum bilirubin (TSB), adjusted and unadjusted, change from baseline
# Format: in vivo, human
# Parameters: total serum bilirubin / total serum bilirubin, Delta (change from baseline) / Change from baseline of total serum bilirubin: unit not given here
# Conditions: for total serum bilirubin / total serum bilirubin, Delta (change from baseline): 48 hours, preliminary data; for change from baseline in adjusted TSB, LS mean difference versus placebo, MMRM / change from baseline in adjusted TSB, LS means (SEM), MMRM: observed case
# Experimental: Three cohorts of subjects were recruited. This clinical study was designed to evaluate safety and efficacy parameters in each cohort.
# Scheduled assessments (including TSB) occurred before treatment and at 0.75 and 2 hours (or 1.5 and 3 hours, depending on PK blood sampling assignment); 6, 12, 24, 48, and 72 hours; and 14 and 30 (except TSB) days after treatment or early termination.
# The primary efficacy endpoint was the change in adjusted TSB from baseline to 48 hours after treatment. The adjusted TSB was a calculation of the percentage variance of the TSB level from the age specific threshold for PT initiation per the AAP Guidelines, i.e., an indication of the distance below the PT threshold by time.
# The Secondary Efficacy Endpoints were the change from baseline in unadjusted TSB at 48 hours after treatment, change from baseline in adjusted and unadjusted TSB at various other time points after treatment, percent change from baseline in unadjusted TSB, proportion of subjects who require PT/exchange transfusion (ET), time to PT/ET, duration of PT and time to hospital discharge.
# Intent-to-treat population (ITT): Defined as all subjects who were randomly assigned treatment in the clinical study, had received IMP, and had at least 1 post baseline TSB measurement during the first 48 hours after treatment. Subjects were summarized based on randomized treatment.
# Analysis of Efficacy Parameters: The primary efficacy analysis applied the analysis of covariance (ANCOVA) method to determine if there was a significant difference between treatment groups in change in adjusted TSB levels from baseline to 48 hours post baseline after controlling for the effects of gestational age and adjusted baseline TSB levels. If assumptions of ANCOVA appeared to be violated, a Wilcoxon rank-sum test could be performed instead. Time-to-event variables were analyzed using the Kaplan-Meier method, and Kaplan-Meier survival curves were presented.
# [1] = 1.5 mg/kg IM, 6 h, ITT, LOCF, ANCOVA
# [2] = 1.5 mg/kg IM, 12 h, ITT, LOCF, ANCOVA
# [3] = 1.5 mg/kg IM, 24 h, ITT, LOCF, ANCOVA
# [4] = 1.5 mg/kg IM, 48 h/early termination, ITT, LOCF
# [5] = 1.5 mg/kg IM, 48 h, ITT, LOCF, ANCOVA
# [6] = 1.5 mg/kg IM, 72 h, ITT, LOCF, ANCOVA
# [7] = 1.5 mg/kg IM, 14 days/early termination, ITT, LOCF
# [8] = 1.5 mg/kg IM, 14 days/early termination, ITT, LOCF, ANCOVA
# [9] = 1.5 mg/kg versus the placebo group, 48 Hours/Early termination, PP Population, ANCOVA
# [10] = 1.5 mg/kg, 48 Hours/Early termination, PP Population, LOCF
# [11] = 1.5 mg/kg, 6 hrs, unadjusted TSB, ITT Population
substance,measurement,setting,value
tin IV mesoporphyrin IX dichloride [Stannsoporfin],total serum bilirubin,"1.5 mg/kg IM (N = 10), treated per protocol",10.96 ± 1.8
same,"adjusted TSB, Mean (SD)","1.5 mg/kg IM, 6 h, ITT, LOCF",−17.77 (13.326) %
same,"change from baseline in adjusted TSB, Mean (SD)","1.5 mg/kg IM, 6 h, ITT, LOCF",2.47 (7.928) %
same,"change from baseline in adjusted TSB, Median","1.5 mg/kg IM, 6 h, ITT, LOCF",2.80%
same,"change from baseline in unadjusted TSB, Mean (SD)","1.5 mg/kg IM, 6 h, ITT, LOCF",1.50 (0.861) mg/dL
same,"change from baseline in unadjusted TSB, Median","1.5 mg/kg IM, 6 h, ITT, LOCF",1.50 mg/dL
same,"unadjusted TSB, Mean (SD)","1.5 mg/kg IM, 6 h, ITT, LOCF",9.09 (2.175) mg/dL
same,"unadjusted TSB, Median","1.5 mg/kg IM, 6 h, ITT, LOCF",9.60 mg/dL
same,"change from baseline in adjusted TSB, LS mean (SEM)",[1],2.72 (2.053) %
same,"change from baseline in adjusted TSB, LS mean difference versus placebo",[1],−1.67%
same,"change from baseline in unadjusted TSB, LS Mean (SEM)",[1],1.38 (0.242) mg/dL
same,"change from baseline in unadjusted TSB, LS Mean Difference versus placebo",[1],-0.21 mg/dL
same,"change from baseline in adjusted TSB, LS mean difference versus placebo, MMRM","1.5 mg/kg IM, 6 h, ITT",−1.44%
same,"change from baseline in adjusted TSB, LS means (SEM), MMRM","1.5 mg/kg IM, 6 h, ITT",2.94 (2.098) %
same,"adjusted TSB, Mean (SD)","1.5 mg/kg IM, 12 h, ITT, LOCF",−17.41 (17.294) %
same,"change from baseline in adjusted TSB, Mean (SD)","1.5 mg/kg IM, 12 h, ITT, LOCF",2.83 (12.949) %
same,"change from baseline in adjusted TSB, Median","1.5 mg/kg IM, 12 h, ITT, LOCF",5.70%
same,"change from baseline in unadjusted TSB, Mean (SD)","1.5 mg/kg IM, 12 h, ITT, LOCF",2.22 (1.624) mg/dL
same,"change from baseline in unadjusted TSB, Median","1.5 mg/kg IM, 12 h, ITT, LOCF",2.50 mg/dL
same,"unadjusted TSB, Mean (SD)","1.5 mg/kg IM, 12 h, ITT, LOCF",9.82 (2.599) mg/dL
same,"unadjusted TSB, Median","1.5 mg/kg IM, 12 h, ITT, LOCF",10.20 mg/dL
same,"change from baseline in adjusted TSB, LS mean (SEM)",[2],4.54 (3.015) %
same,"change from baseline in adjusted TSB, LS mean difference versus placebo",[2],−2.59%
same,"change from baseline in unadjusted TSB, LS Mean (SEM)",[2],2.21 (0.374) mg/dL
same,"change from baseline in unadjusted TSB, LS Mean Difference versus placebo",[2],-0.39 mg/dL
same,"change from baseline in adjusted TSB, LS mean difference versus placebo, MMRM","1.5 mg/kg IM, 12 h, ITT",−2.67%
same,"change from baseline in adjusted TSB, LS means (SEM), MMRM","1.5 mg/kg IM, 12 h, ITT",3.29 (2.731) %
same,"adjusted TSB, Mean (SD)","1.5 mg/kg IM, 24 h, ITT, LOCF",−24.44 (18.927) %
same,"change from baseline in adjusted TSB, Mean (SD)","1.5 mg/kg IM, 24 h, ITT, LOCF",−4.20 (16.064) %
same,"change from baseline in adjusted TSB, Median","1.5 mg/kg IM, 24 h, ITT, LOCF",−4.30%
same,"change from baseline in unadjusted TSB, Mean (SD)","1.5 mg/kg IM, 24 h, ITT, LOCF",2.24 (2.084) mg/dL
same,"change from baseline in unadjusted TSB, Median","1.5 mg/kg IM, 24 h, ITT, LOCF",2.70 mg/dL
same,"unadjusted TSB, Mean (SD)","1.5 mg/kg IM, 24 h, ITT, LOCF",9.84 (2.656) mg/dL
same,"unadjusted TSB, Median","1.5 mg/kg IM, 24 h, ITT, LOCF",10.80 mg/dL
same,"change from baseline in adjusted TSB, LS mean (SEM)",[3],−7.62 (4.320) %
same,"change from baseline in adjusted TSB, LS mean difference versus placebo",[3],−7.53%
same,"change from baseline in unadjusted TSB, LS Mean (SEM)",[3],1.98 (0.549) mg/dL
same,"change from baseline in unadjusted TSB, LS Mean Difference versus placebo",[3],-0.76 mg/dL
same,"change from baseline in adjusted TSB, LS mean difference versus placebo, MMRM","1.5 mg/kg IM, 24 h, ITT",−3.77%
same,"change from baseline in adjusted TSB, LS means (SEM), MMRM","1.5 mg/kg IM, 24 h, ITT",−5.33 (3.948) %
same,"adjusted TSB, Mean (SD)",[4],−35.09 (19.198) %
same,"adjusted TSB, Median",[4],−27.10%
same,"change from baseline in adjusted TSB, Mean (SD)","1.5 mg/kg IM, 48 h, ITT, LOCF",−14.85 (15.442) %
same,"change from baseline in adjusted TSB, Median","1.5 mg/kg IM, 48 h, ITT, LOCF",−12.30%
same,"change from baseline in unadjusted TSB, Mean (SD)","1.5 mg/kg IM, 48 h, ITT, LOCF",2.32 (2.560) mg/dL
same,"change from baseline in unadjusted TSB, Median","1.5 mg/kg IM, 48 h, ITT, LOCF",2.70 mg/dL
same,"unadjusted TSB, Mean (SD)","1.5 mg/kg IM, 48 h, ITT, LOCF",9.91 (3.116) mg/dL
same,"unadjusted TSB, Median","1.5 mg/kg IM, 48 h, ITT, LOCF",10.90 mg/dL
same,"change from baseline in adjusted TSB, LS mean (SEM) (primary endpoint)",[5],−15.03 (5.273) %
same,"change from baseline in adjusted TSB, LS mean difference versus placebo",[5],−13.45%
same,"change from baseline in unadjusted TSB, LS Mean (SEM)",[5],2.43 (0.842) mg/dL
same,"change from baseline in unadjusted TSB, LS Mean Difference versus placebo",[5],-1.81 mg/dL
same,"change from baseline in adjusted TSB, LS mean (SEM) (primary endpoint)","1.5 mg/kg IM, 48 h, ITT, LOCF, ANCOVA, listed as stannsoporfin",15.0%
same,"change from baseline in adjusted TSB, LS mean difference versus placebo, MMRM","1.5 mg/kg IM, 48 h, ITT",−8.26%
same,"change from baseline in adjusted TSB, LS means (SEM), MMRM","1.5 mg/kg IM, 48 h, ITT",−14.94 (5.019) %
same,total serum bilirubin,"1.5 mg/kg IM, intent to treat",9.91 ± 3.1
same,"total serum bilirubin, Delta (change from baseline)","1.5 mg/kg IM, intent to treat",2.32 ± 2.5
same,"total serum bilirubin, Delta (change from baseline)","1.5 mg/kg IM, treated per protocol",3.44 ± 1.5
same,"adjusted TSB, Mean (SD)","1.5 mg/kg IM, 72 h/early termination, ITT, LOCF",−44.82 (19.254) %
same,"change from baseline in adjusted TSB, Mean (SD)","1.5 mg/kg IM, 72 h, ITT, LOCF",−24.58 (15.743) %
same,"change from baseline in adjusted TSB, Median","1.5 mg/kg IM, 72 h, ITT, LOCF",−22.10%
same,"change from baseline in unadjusted TSB, Mean (SD)","1.5 mg/kg IM, 72 h, ITT, LOCF",1.76 (2.790) mg/dL
same,"change from baseline in unadjusted TSB, Median","1.5 mg/kg IM, 72 h, ITT, LOCF",2.40 mg/dL
same,"unadjusted TSB, Mean (SD)","1.5 mg/kg IM, 72 h, ITT, LOCF",9.35 (3.409) mg/dL
same,"unadjusted TSB, Median","1.5 mg/kg IM, 72 h, ITT, LOCF",10.60 mg/dL
same,"change from baseline in adjusted TSB, LS mean (SEM)",[6],−21.94 (6.232) %
same,"change from baseline in adjusted TSB, LS mean difference versus placebo",[6],−17.19%
same,"change from baseline in unadjusted TSB, LS Mean (SEM)",[6],2.43 (1.077) mg/dL
same,"change from baseline in unadjusted TSB, LS Mean Difference versus placebo",[6],-2.52 mg/dL
same,"change from baseline in unadjusted TSB, Mean (SD)",[7],−4.08 (2.322) mg/dL
same,"change from baseline in unadjusted TSB, Median",[7],-4.00 mg/dL
same,"unadjusted TSB, Mean (SD)",[7],3.52 (2.751) mg/dL
same,"unadjusted TSB, Median",[7],2.80 mg/dL
same,"change from baseline in unadjusted TSB, LS Mean (SEM)",[8],−4.04 (1.258) mg/dL
same,"change from baseline in unadjusted TSB, LS Mean Difference versus placebo",[8],-1.74 mg/dL
same,"48 Hours/Early termination change from baseline in unadjusted TSB, LS mean difference",[9],-0.97 mg/dL
same,"P-value of LS mean difference, change from baseline in unadjusted TSB",[9],0.338
same,"48 Hours/Early termination change from baseline in unadjusted TSB, Max",[10],5.2 mg/dL
same,"48 Hours/Early termination change from baseline in unadjusted TSB, Mean (SD)",[10],3.44 (1.458) mg/dL
same,"48 Hours/Early termination change from baseline in unadjusted TSB, Median",[10],3.40 mg/dL
same,"48 Hours/Early termination change from baseline in unadjusted TSB, Min",[10],0.7 mg/dL
same,"48 Hours/Early termination unadjusted TSB, Max",[10],12.8 mg/dL
same,"48 Hours/Early termination unadjusted TSB, Mean (SD)",[10],10.96 (1.842) mg/dL
same,"48 Hours/Early termination unadjusted TSB, Median",[10],11.35 mg/dL
same,"48 Hours/Early termination unadjusted TSB, Min",[10],6.8 mg/dL
same,"48 Hours/Early termination change from baseline in unadjusted TSB, LS mean (SEM)","1.5 mg/kg, 48 Hours/Early termination, PP Population, LOCF, ANCOVA",2.96 (0.868) mg/dL
same,"6 hrs Percent Change from Baseline in TSB, Max",[11],42.0%
same,"6 hrs Percent Change from Baseline in TSB, Mean (SD)",[11],20.13 (12.268) %
same,"6 hrs Percent Change from Baseline in TSB, Min",[11],−1.7%
same,"6 hrs TSB, Max",[11],14.1 mg/dL
